Where two headings read alike, the source gives them in different places.
What was measured:
EGFR wildtype = EGFR wildtype (Homo sapiens, UniProt P00533); assay: Biochemical EGFR kinase assay (Lance Ultra TR-FRET), wildtype
Procedure, shortened: (§1)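 Step 1: compound in kinase buffer, 0.003–10 μM. Step 2: kinase reaction 1 h at room temperature. Step 4: TR-FRET read at 615/665 nm; IC50 calculated.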

EGFR L858R/T790M/C797S = EGFR L858R/T790M/C797S (Homo sapiens, UniProt P00533, C797S/L858R/T790M); assay: Biochemical EGFR kinase assay (Lance Ultra TR-FRET), triple mutant L858R/T790M/C797S
EGFR L858R/T790M/C797S, sequence (P00533 25-1210 T790M/C797S/L858R): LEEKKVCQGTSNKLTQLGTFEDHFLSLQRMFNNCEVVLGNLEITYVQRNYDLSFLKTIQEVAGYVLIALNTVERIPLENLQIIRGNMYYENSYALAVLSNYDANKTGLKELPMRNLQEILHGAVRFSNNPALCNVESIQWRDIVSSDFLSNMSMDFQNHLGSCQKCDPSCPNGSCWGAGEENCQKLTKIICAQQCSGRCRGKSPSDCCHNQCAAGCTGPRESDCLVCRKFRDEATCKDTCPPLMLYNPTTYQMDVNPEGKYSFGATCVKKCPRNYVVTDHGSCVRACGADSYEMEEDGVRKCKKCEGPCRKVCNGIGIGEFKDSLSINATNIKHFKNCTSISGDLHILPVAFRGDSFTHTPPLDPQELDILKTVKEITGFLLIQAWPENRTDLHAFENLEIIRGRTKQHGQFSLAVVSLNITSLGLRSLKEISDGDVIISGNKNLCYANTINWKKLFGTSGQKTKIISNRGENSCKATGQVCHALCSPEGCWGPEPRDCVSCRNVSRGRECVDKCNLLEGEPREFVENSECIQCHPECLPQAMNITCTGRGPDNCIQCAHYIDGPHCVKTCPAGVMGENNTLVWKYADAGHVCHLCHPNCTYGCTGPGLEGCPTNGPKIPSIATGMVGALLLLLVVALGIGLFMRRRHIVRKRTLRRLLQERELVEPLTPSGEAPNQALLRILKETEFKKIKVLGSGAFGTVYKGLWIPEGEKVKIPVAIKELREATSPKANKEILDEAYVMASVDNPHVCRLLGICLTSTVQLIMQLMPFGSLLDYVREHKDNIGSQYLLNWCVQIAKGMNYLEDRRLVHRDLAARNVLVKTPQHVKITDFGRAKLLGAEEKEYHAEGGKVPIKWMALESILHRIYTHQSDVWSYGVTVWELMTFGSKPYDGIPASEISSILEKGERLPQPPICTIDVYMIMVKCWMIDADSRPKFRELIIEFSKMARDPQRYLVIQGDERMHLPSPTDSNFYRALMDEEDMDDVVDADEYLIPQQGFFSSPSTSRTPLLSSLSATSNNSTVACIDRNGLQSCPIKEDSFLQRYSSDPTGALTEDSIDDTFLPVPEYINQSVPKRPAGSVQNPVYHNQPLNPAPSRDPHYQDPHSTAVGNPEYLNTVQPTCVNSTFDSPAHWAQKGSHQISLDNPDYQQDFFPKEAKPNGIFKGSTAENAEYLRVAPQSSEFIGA
Procedure, shortened: as §1

EGFR L858R/C797S = EGFR L858R/C797S (Homo sapiens, UniProt P00533, C797S/L858R); assay: Biochemical EGFR kinase assay (Lance Ultra TR-FRET), double mutant L858R/C797S
EGFR L858R/C797S, sequence (P00533 25-1210 C797S/L858R): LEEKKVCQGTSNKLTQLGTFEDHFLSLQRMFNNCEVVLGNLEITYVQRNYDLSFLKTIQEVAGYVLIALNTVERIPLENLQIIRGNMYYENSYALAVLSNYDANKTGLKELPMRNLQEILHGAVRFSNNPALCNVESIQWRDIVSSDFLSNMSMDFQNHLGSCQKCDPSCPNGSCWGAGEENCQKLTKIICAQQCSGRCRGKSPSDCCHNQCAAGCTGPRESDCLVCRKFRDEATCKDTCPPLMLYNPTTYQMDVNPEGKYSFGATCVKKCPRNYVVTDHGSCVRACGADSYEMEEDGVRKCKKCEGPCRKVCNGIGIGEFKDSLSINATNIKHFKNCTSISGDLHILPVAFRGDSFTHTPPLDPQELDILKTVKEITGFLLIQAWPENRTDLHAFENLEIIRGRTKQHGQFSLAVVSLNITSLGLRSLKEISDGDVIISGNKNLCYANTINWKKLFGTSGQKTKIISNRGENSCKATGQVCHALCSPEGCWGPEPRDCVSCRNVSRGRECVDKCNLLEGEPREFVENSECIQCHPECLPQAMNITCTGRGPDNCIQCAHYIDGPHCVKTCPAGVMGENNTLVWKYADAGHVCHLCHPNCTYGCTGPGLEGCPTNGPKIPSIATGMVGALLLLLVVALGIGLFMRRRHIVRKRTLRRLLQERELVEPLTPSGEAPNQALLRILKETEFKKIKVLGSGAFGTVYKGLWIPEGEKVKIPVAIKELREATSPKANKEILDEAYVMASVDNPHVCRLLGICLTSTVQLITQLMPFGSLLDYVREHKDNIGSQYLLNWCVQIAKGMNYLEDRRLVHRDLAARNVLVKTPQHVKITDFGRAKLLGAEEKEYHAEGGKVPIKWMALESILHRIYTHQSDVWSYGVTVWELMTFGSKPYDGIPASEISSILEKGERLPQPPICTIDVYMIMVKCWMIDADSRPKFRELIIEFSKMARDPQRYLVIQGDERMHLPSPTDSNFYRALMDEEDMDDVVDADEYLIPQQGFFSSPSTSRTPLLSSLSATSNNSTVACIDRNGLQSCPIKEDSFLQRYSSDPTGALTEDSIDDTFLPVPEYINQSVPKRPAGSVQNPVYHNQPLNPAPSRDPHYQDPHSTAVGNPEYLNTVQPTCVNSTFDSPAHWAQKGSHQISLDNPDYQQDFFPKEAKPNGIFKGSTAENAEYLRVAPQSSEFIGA
Procedure, shortened: as §1

EGFR del19/C797S = EGFR del19/C797S (Homo sapiens, UniProt P00533, C797S/DEL746-750); assay: Biochemical EGFR kinase assay (Lance Ultra TR-FRET), double mutant del19/C797S
Procedure, shortened: as §1

EGFR del19/T790M/C797S = EGFR del19/T790M/C797S (Homo sapiens, UniProt P00533, C797S/DEL746-750/T790M); assay: Biochemical EGFR kinase assay (Lance Ultra TR-FRET), triple mutant del19/T790M/C797S
EGFR del19/T790M/C797S, sequence (P00533 with tags, fused parts or gaps DEL746-750/T790M/C797S): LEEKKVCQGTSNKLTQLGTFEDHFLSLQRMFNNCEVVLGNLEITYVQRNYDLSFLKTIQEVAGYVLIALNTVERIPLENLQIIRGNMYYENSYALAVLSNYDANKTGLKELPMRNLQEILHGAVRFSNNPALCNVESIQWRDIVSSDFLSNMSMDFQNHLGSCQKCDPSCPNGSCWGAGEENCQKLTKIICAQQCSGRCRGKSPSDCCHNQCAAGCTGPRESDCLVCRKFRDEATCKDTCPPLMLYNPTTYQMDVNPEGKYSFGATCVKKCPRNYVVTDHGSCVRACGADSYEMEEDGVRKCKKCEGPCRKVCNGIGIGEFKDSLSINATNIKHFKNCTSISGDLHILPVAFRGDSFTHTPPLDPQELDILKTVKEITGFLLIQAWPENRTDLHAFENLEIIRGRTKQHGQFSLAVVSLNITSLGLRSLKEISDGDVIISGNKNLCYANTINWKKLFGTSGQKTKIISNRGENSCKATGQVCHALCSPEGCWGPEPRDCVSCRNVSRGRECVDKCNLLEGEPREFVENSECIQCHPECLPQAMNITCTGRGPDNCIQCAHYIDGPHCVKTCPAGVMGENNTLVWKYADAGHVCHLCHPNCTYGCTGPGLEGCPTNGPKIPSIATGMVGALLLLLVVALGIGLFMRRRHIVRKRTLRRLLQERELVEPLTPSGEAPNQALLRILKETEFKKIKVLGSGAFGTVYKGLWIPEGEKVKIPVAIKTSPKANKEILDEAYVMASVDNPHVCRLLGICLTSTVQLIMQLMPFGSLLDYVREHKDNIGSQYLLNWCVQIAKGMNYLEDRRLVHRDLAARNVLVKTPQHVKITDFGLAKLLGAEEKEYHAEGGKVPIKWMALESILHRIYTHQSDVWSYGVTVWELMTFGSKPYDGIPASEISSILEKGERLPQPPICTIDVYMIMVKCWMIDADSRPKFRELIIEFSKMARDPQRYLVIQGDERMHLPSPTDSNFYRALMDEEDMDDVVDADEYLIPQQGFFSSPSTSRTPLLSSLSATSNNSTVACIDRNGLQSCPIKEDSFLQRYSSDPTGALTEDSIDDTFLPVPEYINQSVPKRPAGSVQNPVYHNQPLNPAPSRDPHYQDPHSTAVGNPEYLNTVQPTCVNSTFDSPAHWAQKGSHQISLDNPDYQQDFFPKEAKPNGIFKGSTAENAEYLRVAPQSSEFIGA
Procedure, shortened: as §1

[1] = IC50 WT (nM) 100 μM ATP, 100 μM ATP
[2] = Km ATP, read-out: IC50 WT (nM) Km ATP
[3] = IC50 L858R/T790M/C797S (nM) 100 μM ATP, 100 μM ATP
[4] = Km ATP, read-out: IC50 L858R/T790M/C797S (nM) Km ATP
[5] = IC50 L858R/C797S (nM) 100 μM ATP, 100 μM ATP
[6] = Km ATP, read-out: IC50 L858R/C797S (nM) Km ATP
[7] = IC50 del19/C797S (nM) 100 μM ATP, 100 μM ATP
[8] = IC50 del19/T790M/C797S (nM) 100 μM ATP, 100 μM ATP
[9] = Km ATP, read-out: IC50 del19/T790M/C797S (nM) Km ATP
[10] = Km ATP, read-out: IC50 del19/C797S (nM) Km ATP

EGFR wildtype, sequence (P00533 25-1210): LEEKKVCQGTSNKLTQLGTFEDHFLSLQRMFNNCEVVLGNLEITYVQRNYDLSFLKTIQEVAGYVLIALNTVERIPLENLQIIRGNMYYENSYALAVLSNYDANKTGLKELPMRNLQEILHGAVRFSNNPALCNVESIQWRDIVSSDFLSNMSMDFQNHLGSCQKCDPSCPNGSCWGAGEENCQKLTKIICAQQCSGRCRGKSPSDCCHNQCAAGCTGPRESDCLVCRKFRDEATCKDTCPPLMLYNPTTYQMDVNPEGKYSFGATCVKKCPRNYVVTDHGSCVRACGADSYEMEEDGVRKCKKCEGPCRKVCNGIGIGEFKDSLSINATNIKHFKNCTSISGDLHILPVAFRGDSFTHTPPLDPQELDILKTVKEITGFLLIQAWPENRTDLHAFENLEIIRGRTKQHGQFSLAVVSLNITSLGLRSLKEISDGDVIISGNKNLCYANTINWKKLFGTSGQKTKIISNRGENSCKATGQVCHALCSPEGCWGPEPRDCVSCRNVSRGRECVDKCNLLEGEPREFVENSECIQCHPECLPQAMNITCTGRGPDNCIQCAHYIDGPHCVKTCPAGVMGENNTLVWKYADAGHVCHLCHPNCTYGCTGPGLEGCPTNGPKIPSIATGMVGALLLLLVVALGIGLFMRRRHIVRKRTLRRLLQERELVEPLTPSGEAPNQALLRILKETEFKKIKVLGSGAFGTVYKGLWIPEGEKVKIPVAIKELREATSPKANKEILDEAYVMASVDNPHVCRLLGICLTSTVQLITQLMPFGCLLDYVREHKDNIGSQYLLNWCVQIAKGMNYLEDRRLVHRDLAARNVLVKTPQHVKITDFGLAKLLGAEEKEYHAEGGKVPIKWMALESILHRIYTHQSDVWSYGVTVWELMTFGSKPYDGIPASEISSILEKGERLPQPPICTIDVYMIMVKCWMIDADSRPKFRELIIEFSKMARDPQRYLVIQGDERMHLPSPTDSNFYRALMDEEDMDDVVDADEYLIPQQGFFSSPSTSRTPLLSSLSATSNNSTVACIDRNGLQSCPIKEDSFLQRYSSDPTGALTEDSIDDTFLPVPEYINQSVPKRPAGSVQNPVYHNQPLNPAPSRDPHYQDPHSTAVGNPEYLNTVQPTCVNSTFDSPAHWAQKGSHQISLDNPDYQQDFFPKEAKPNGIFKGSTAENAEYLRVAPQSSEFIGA

Structure (SMILES) | IC50 (EGFR wildtype; [1]) | IC50 (EGFR wildtype; [2]) | IC50 (EGFR L858R/T790M/C797S; [3]) | IC50 (EGFR L858R/T790M/C797S; [4]) | IC50 (EGFR L858R/C797S; [5]) | IC50 (EGFR L858R/C797S; [6]) | IC50 (EGFR del19/C797S; [7]) | IC50 (EGFR del19/T790M/C797S; [8]) | IC50 (EGFR del19/T790M/C797S; [9]) | IC50 (EGFR del19/C797S; [10]) | IC50 (EGFR wildtype; ATP at Km, read-out: IC50 WT, Km ATP) | IC50 (EGFR L858R/T790M/C797S; ATP at Km, read-out: IC50 L858R/T790M/C797S, Km ATP) | IC50 (EGFR L858R/C797S; ATP at Km, read-out: IC50 L858R/C797S, Km ATP) | IC50 (EGFR del19/C797S; ATP at Km, read-out: IC50 del19/C797S, Km ATP) | IC50 (EGFR del19/T790M/C797S; ATP at Km, read-out: IC50 del19/T790M/C797S, Km ATP)
O=S(=O)(C1CC1)n1cc(-c2nccc(Nc3cc(N[C@H]4CC[C@@H](CO)CC4)c(-c4cnc(N5CCC(F)(F)CC5)cn4)cn3)n2)cn1 [Example 70, ((1s,4s)-4-((2-((2-(1-(Cyclopropylsulfonyl)-1H-pyrazol-4-yl)pyrimidin-4-yl)amino)-5-(5-(4,4-difluoropiperidin-1-yl)pyrazin-2-yl)pyridin-4-yl)amino)cyclohexyl)methanol] | > 10000 nM |  | 4.9 nM |  | 81.1 nM |  | 13.1 nM | 3.9 nM |  |  |  |  |  |  | 
C[C@]1(O)CC[C@@H](Nc2cc(Nc3ccnc(-c4cnn(S(=O)(=O)C5CC5)c4)n3)ncc2-c2ccc(N3CCC(F)(F)CC3)cn2)CC1 [Example 47, (1s,4s)-4-((6′-((2-(1-(Cyclopropylsulfonyl)-1H-pyrazol-4-yl)pyrimidin-4-yl)amino)-5-(4,4-difluoropiperidin-1-yl)-[2,3′-bipyridin]-4′-yl)amino)-1-methylcyclohexan-1-ol] | > 10000 nM | 7.1 nM | 3 nM | 1 nM | 17.7 nM | 7.9 nM | 4.2 nM |  | 2 nM | 3.2 nM |  |  |  |  | 
CN1CCN(c2ccc(-c3cnc(Nc4ccnc(-c5cnn(S(=O)(=O)C6CC6)c5)n4)cc3N[C@H]3CC[C@@](C)(O)CC3)nn2)CC1 [Example 46, (1s,4s)-4-((2-((2-(1-(Cyclopropylsulfonyl)-1H-pyrazol-4-yl)pyrimidin-4-yl)amino)-5-(6-(4-methylpiperazin-1-yl)pyridazin-3-yl)pyridin-4-yl)amino)-1-methylcyclohexan-1-ol] | > 10000 nM | 0.9 nM | 0.2 nM | 0.1 nM | 0.9 nM | 0.2 nM | 0.4 nM | 0.3 nM | 0.2 nM | 0.2 nM |  |  |  |  | 
O=S(=O)(C1CC1)n1cc(-c2nccc(Nc3cc(N[C@H]4CC[C@@H](CCO)CC4)c(-c4cc(C(F)F)ccn4)cn3)n2)cn1 [Example 97, 2-((1s,4s)-4-((6′-((2-(1-(Cyclopropylsulfonyl)-1H-pyrazol-4-yl)pyrimidin-4-yl)amino)-4-(difluoromethyl)-[2,3′-bipyridin]-4′-yl)amino)cyclohexyl)ethan-1-ol] | > 10000 nM | 7.4 nM | 1 nM | 0.5 nM | 52.6 nM | 2 nM | 6 nM | 2.2 nM | 2.1 nM | 2.3 nM |  |  |  |  | 

More lines, now with the values ahead:

IC50 (EGFR wildtype; [1]) | IC50 (EGFR wildtype; [2]) | IC50 (EGFR L858R/T790M/C797S; [3]) | IC50 (EGFR L858R/T790M/C797S; [4]) | IC50 (EGFR L858R/C797S; [5]) | IC50 (EGFR L858R/C797S; [6]) | IC50 (EGFR del19/C797S; [7]) | IC50 (EGFR del19/T790M/C797S; [8]) | IC50 (EGFR del19/T790M/C797S; [9]) | IC50 (EGFR del19/C797S; [10]) | IC50 (EGFR wildtype; ATP at Km, read-out: IC50 WT, Km ATP) | IC50 (EGFR L858R/T790M/C797S; ATP at Km, read-out: IC50 L858R/T790M/C797S, Km ATP) | IC50 (EGFR L858R/C797S; ATP at Km, read-out: IC50 L858R/C797S, Km ATP) | IC50 (EGFR del19/C797S; ATP at Km, read-out: IC50 del19/C797S, Km ATP) | IC50 (EGFR del19/T790M/C797S; ATP at Km, read-out: IC50 del19/T790M/C797S, Km ATP) | Structure (SMILES)
3710 nM | 37.8 nM | 4.1 nM | 2.6 nM | 9.6 nM | 4.1 nM | 11.2 nM | 8.6 nM | 6.2 nM |  |  |  |  |  |  | CC(C)(O)c1cc(-c2cnc(Nc3ccnc(-c4cnn(S(=O)(=O)C5CC5)c4)n3)cc2N[C@H]2CC[C@@H](C(C)(C)O)CC2)ncc1F [Example 106, 2-(6′-((2-(1-(Cyclopropylsulfonyl)-1H-pyrazol-4-yl)pyrimidin-4-yl)amino)-5-fluoro-4′-(((1s,4s)-4-(2-hydroxypropan-2-yl)cyclohexyl)amino)-[2,3′-bipyridin]-4-yl)propan-2-ol]
 | 272 nM |  | 0.2 nM |  | 6.4 nM |  |  | 1.1 nM | 74.4 nM |  |  |  |  |  | FC(F)Cn1cc(-c2nccc(Nc3cc(N[C@H]4CC[C@@H](F)CC4)c(-c4ccc(N5CCOCC5)cn4)cn3)n2)cn1 [Example 137, N^6′-(2-(1-(2,2-Difluoroethyl)-1H-pyrazol-4-yl)pyrimidin-4-yl)-N^4′-((1s,4s)-4-fluorocyclohexyl)-5-morpholino-[2,3′-bipyridine]-4′,6′-diamine]
 |  |  |  |  |  |  |  |  |  | 2.8 nM | 0.2 nM | 0.2 nM | 0.4 nM | 0.5 nM | CC(C)Nc1cc(Nc2ccnc(-c3cnn(S(=O)(=O)C4CC4)c3)n2)ncc1-c1ccc(OC2CCN(C)CC2)cn1 [Example 249, N^6′-(2-(1-(Cyclopropylsulfonyl)-1H-pyrazol-4-yl)pyrimidin-4-yl)-N^4′-isopropyl-5-((1-methylpiperidin-4-yl)oxy)-[2,3′-bipyridine]-4′,6′-diamine]
